Results on two compounds are retold here after the NIST ThermoML archive (doi:10.1016/j.tca.2012.09.040).

This series is described as follows: of the first substance listed, at infinite dilution; xn = mol fraction of the nth substance listed. Particulars: 100 kPa, Liquid, isoperibol.

± gives the expanded uncertainty stated by the source.

Turning to `CN(C)C=O` [dimethylformamide] + CCCCCCCCO, the partial molar enthalpy was found to be 1.35 ± 0.0263 kcal/mol (298.15 K, x1 = 0) and 1.22 ± 0.0239 kcal/mol (318.15 K, x1 = 0).
Turning to `CCCCCCCCO` [octan-1-ol] + CN(C)C=O, the partial molar enthalpy stood at 1.55 ± 0.0311 kcal/mol (298.15 K, x2 = 1) and 1.52 ± 0.0311 kcal/mol (318.15 K, x2 = 1).
